Laboratory results taken from US20170066759A1, “AROMATIC 5-MEMBERED HETEROCYCLIC DERIVATIVE HAVING TRPV4-INHIBITING ACTIVITY” (Shionogi & Co., Ltd., priority 2012, published 2017).

How the values were obtained:
Format in all cases: cell-based
[1] = biological target: T1, human TRPV4 (hTRPV4/CHO cells) (Homo sapiens, UniProt Q9HBA0); assay: Test Example 1: TRPV4 inhibitory activity (IC50 value), 4α-PDD stimulation, Fluo4 calcium fluorescence (FLIPR TETRA); conditions: Test Example 1, 4α-PDD stimulation, read-out: Test 1 IC50
T1 construct: expressed in transfected cells; host or cells: CHO-K1

[2] = biological target: T1, human TRPV4 (hTRPV4/CHO cells); assay: Test Example 4: TRPV4 inhibitory activity (Ki value), 4α-PDD stimulation, Fluo-3 calcium fluorescence (FDSS 3000); conditions: Test Example 4, 4α-PDD stimulation, read-out: Test 4 Ki
Experimental: TRPV4 Inhibitory Activity (Ki Value)
(§1) For each compound, TRPV4 inhibitory activity was measured using cells.
(§2) (Method) The procedures of evaluating TRPV4 inhibitory activity of a compound are as follows.
(§3) (1) TRPV4 inhibitory activity was measured using CHO-K1 cells stably expressing human TRPV4 (hTRPV4/CHO cells).
(2) Cells were subcultured using the MEM-α medium (SIGMA M4526: 500 ml), FBS (HyCloneSH30070.03: 10%), L-Glutamine 200 mmol/L (GIBCO: 4 mmol/L), P/S (nacalai tesque: 1%), G418 (nacalai tesque: 1 mg/mL).
(3) The 96-well plates which hTRPV4/CHO cells were seeded at densities of 2×10^4 cells/well in the culture medium in the day before the experimental day, and cultured in a CO2 incubator in the presence of 5% CO2 at 37° C. for 24 hours was used as assay plates.
(4) Cells were washed with assay buffer (Hank's Balanced Salt Solution 9.8 g, 1 mol/L HEPES (pH7.5), 250 mmol/L probenecid).
(5) Fluo-3, fluorescent dye for Ca influx assay was added to each well, then the assay plate was incubated in a CO2 incubator in the presence of 5% CO2 at 37° C. for one hour (final conc.; 5 μmol/L Fluo-3).
(6) The assay plate was washed with the assay buffer, and the buffer was remained at 30 μL/well. Then the assay plate was incubated for 10 min at 37° C.
(7) 20 μL of diluted compound solution was added to each well of assay plate, and mixed with built-in Pipette and Mixer of the fluorescence analysis system FDSS 3000 (Hamamatsu Photonics).
(8) 50 μL of 4α-PDD solution (concluding 0.1% Pluronic F-127) was applied to each well of assay plate and mixed.
(9) The fluorescent intensity was measured by FDSS 3000 for 8 min from the point of time addition the compound solution, at Ex 480 nm, Em 540 nm wavelength.
TRPV4 inhibitory activity (Ki value) of a compound was calculated according to the following procedure.
(§4) (10) In the presence of the compound, the difference between maximal and minimal of fluorescent intensity value for 8 min from just before addition of 4α-PDD solution was calculated, and it was referred as Max-Min value. Max-Min value of the Ruthenium Red at 10 μM was defined as 100% inhibitory activity, Max-Min value in the absence of the compound was defined as 0% inhibitory activity. TRPV4 inhibitory activity of the compound was calculated by the following formula.
(§5) (1−(Max−Min value of the compound−100% inhibitory activity)/(0% inhibitory activity−100% inhibitory activity))×100
(11) By the following formula, inhibitory activity was calculated at 10 points with three fold serial dilution, in the final concentration of the compound from 10 μmol/L to 0.5 nmol/L. The IC50 value was calculated by dose-response curve.
100−[(fluorescent intensity in the presence of the compound−fluorescent intensity of back ground)/(total fluorescent intensity−fluorescent intensity of back ground)]×100
(12) In the presence of the compound, activity of 4α-PDD was measured at 9 points with three fold serial dilution from 20 μmol/L. Activity of 4α-PDD was calculated by the following formula.
(Max−Min value of the each 4α-PDD concentration−0% activity)/(100% activity−0% activity))×100
(13) Effective activity was calculated in 4α-PDD the above. The EC50 value was calculated by dose-response curve.
(14) The Ki value of a compound was calculated by the following formula.
Ki=IC50 value/1+([A]/EC50)
[A]: Concentration of agonist (nmol/L)

[3] = biological target: T1, human TRPV4 (hTRPV4/CHO cells); assay: Test Example 2: TRPV4 inhibitory activity (IC50 value), 4α-PDD stimulation, Fluo3 calcium fluorescence (FLIPR)
Experimental: TRPV4 Inhibitory Activity (IC50 Value)
as §1, §2, §3
(2) In the day before the experimental day, frozen cell were thawed and washed with the culture medium (MEM-α, 10% FBS, 4 mmol/L L-Glutamine, 50 unit Penicillin, 50 μg/mL Streptomycin). Then cells were suspended in the culture medium.
(3) The 384-well plates which hTRPV4/CHO cells were seeded at densities of 4000 cells/well in the culture medium and cultured in a CO2 incubator in the presence of 5% CO2 at 37° C. for 24 hours was used as assay plates.
(4) The assay plate was washed with assay buffer (Hanks, 20 mmol/L HEPES, 2.5 mmol/L probenecid, pH7.4), and the buffer were remained at 20 μL/well.
(5) 10 μl of dye loading buffer (9 μmol/L Fluo 3-AM, 0.09% Pluronic F-127, 1% BSA/assay buffer) was added to each well, then the assay plate was incubated in a CO2 incubator in the presence of 5% CO2 at 37° C. for one hour. (final conc.; 3 μmol/L Fluo3-AM).
(6) The assay plate was washed with the assay buffer, and the buffers were remained at 20 μL/well. Then the assay plate was incubated for 10 min at room temperature.
(7) 20 μL of diluted compound solution was added to each well of assay plate, and mixed with built-in Pipette and Mixer of the Fluorescence analysis system FLIPR 384 (Molecular devices).
(8) After incubation for 4 min, 25 μL of 4α-PDD solution were applied to each well of assay plate and mixed with the FLIPR TETRA. (final conc.; 600 nmol/L 4α-PDD)
(9) The fluorescent intensity was measured with FLIPR TETRA system for 7 min from the point of time addition the compound solution, at Ex 488 nm, Em 510-570 nm wavelength.
TRPV4 inhibitory activity (IC50 value) of a compound was calculated according to the following procedure.
as §4, with “for 3” for “for 8”, “at 20” for “at 10”
as §5
(11) Inhibitory activity was calculated at 10 points with twice serial dilution, in the final concentration of the compound from 3.85 μg/mL to 7.5 ng/mL, the IC50 value (nmol/L) was calculated by logistic approximation method.

[4] = Test Example 2, 4α-PDD stimulation, read-out: Test 2 IC50

T1 sequence (Q9HBA0 whole entry): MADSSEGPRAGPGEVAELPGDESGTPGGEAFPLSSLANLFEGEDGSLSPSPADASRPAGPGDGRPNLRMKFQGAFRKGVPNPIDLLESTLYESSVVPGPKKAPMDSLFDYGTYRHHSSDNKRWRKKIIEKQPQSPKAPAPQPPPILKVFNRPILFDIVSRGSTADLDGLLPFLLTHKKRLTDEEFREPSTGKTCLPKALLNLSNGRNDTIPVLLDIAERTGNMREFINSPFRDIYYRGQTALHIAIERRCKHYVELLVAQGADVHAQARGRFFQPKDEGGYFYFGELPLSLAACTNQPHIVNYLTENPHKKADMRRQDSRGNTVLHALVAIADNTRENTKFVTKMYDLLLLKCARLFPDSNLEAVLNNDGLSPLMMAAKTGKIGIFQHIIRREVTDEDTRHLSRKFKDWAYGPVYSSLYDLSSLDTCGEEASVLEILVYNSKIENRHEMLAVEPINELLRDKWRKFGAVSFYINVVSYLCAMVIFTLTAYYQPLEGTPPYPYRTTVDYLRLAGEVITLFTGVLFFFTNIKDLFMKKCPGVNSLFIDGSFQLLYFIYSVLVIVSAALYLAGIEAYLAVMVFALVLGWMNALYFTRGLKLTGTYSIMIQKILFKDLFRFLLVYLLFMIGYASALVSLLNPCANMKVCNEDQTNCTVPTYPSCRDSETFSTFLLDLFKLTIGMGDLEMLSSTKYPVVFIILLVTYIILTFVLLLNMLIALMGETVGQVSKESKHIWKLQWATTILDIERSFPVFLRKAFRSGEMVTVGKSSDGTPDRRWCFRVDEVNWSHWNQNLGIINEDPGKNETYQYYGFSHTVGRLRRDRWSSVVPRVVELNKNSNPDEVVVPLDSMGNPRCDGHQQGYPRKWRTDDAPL

| IC50 [1] | Ki [2] | IC50 [3, 4] | IC50 ([3]; 600 nmol/L 4α-PDD, Fluo3-AM, read-out: TRPV4 inhibitory activity (IC50 value)) | Structure (SMILES) |
| --- | --- | --- | --- | --- |
| – | – | 1000 to 8000 nM | – | c1ccc(Nc2nc(-c3cccs3)cs2)nc1 [II-9] |
| – | – | 1000 to 8000 nM | – | O=C(Nc1nc(-c2ccc(Cl)s2)cs1)c1cccc(C(F)(F)F)c1 [II-10] |
| – | – | 1000 to 8000 nM | – | O=C(Nc1nc(-c2ccc(Br)s2)cs1)c1cccc(F)c1 [II-11] |
| – | – | 1000 to 8000 nM | – | CC(C)(C)c1ccc(C(=O)Nc2nc(-c3ccc(Cl)s3)cs2)cc1 [II-12] |
| – | – | 1000 to 8000 nM | – | CC(=O)Nc1nc(-c2ccc(Br)s2)cs1 [II-13] |
| – | – | 1000 to 8000 nM | – | O=C(Nc1nc(-c2ccc(Br)s2)cs1)c1ccc(Br)s1 [II-14] |
| – | – | 1000 to 8000 nM | – | O=C(Nc1nc(-c2cccs2)cs1)C1c2ccccc2Oc2ccccc21 [II-15] |
| – | – | 100 to 1000 nM | – | Cc1ccc(-c2csc(NC(=O)COc3ccc(Br)cc3)n2)s1 [II-16] |
| – | – | 1000 to 8000 nM | – | O=C(CSc1ccccc1)Nc1nc(-c2ccc(Br)s2)cs1 [II-17] |
| – | – | 1000 to 8000 nM | – | C/C(=N\Nc1nc(-c2cccs2)cs1)c1ccc(Cl)c(Cl)c1 [II-18] |
| – | – | 100 to 1000 nM | – | COc1ccc(/C(C)=N/Nc2nc(-c3sc(C)nc3C)cs2)cc1 [II-19] |
| – | – | 100 to 1000 nM | – | Cc1cccc(Nc2nc(-c3sc(N)nc3C)cs2)c1 [II-20] |
| – | – | 1000 to 8000 nM | – | Cc1nc(N)sc1-c1csc(Nc2ccc(Br)cc2Br)n1 [II-21] |
| – | – | < 100 nM | 73 nM | Cc1nc(C)c(-c2csc(Nc3ccccn3)n2)s1 [II-22] |
| – | – | 1000 to 8000 nM | – | Cc1ccnc(Nc2nc(-c3sc(N)nc3C)cs2)c1 [II-23] |
| – | – | 1000 to 8000 nM | – | C=CCNc1nc(-c2sc(C)nc2C)cs1 [II-24] |

The next lines start with the compound.

| Structure (SMILES) | IC50 [1] | Ki [2] | IC50 [3, 4] | IC50 ([3]; 600 nmol/L 4α-PDD, Fluo3-AM, read-out: TRPV4 inhibitory activity (IC50 value)) |
| --- | --- | --- | --- | --- |
| Cc1ncsc1-c1csc(NC(=O)Cc2ccc(Br)cc2)n1 [Compound I-13] | < 100 nM | 100 to 1000 nM | – | – |
| Cc1ncc(-c2csc(NC(=O)Cc3ccc(Br)cc3)n2)s1 [Compound I-14] | < 100 nM | < 100 nM | – | – |
| Cc1nc(C)c(-c2csc(NC(=O)Cc3ccc(C(F)(F)F)cc3)n2)s1 [Compound I-19] | < 100 nM | < 100 nM | – | – |
| Cc1nc(C)c(-c2csc(NC(=O)C3CC3)n2)s1 [Compound I-23] | 100 to 1000 nM | < 100 nM | – | – |
| Cc1nc(C)c(-c2csc(NC(=O)c3ccc(S(=O)(=O)C(F)(F)F)cc3)n2)s1 [Compound I-24] | 100 to 1000 nM | 100 to 1000 nM | – | – |
| Cc1nc(C)c(-c2csc(NC(=O)C3CC3(F)F)n2)s1 (stereo not drawn) [Compound I-27] | 100 to 1000 nM | < 100 nM | – | – |
| Cc1nc(C(F)F)sc1-c1csc(NC(=O)Cc2ccc(S(=O)(=O)C(F)(F)F)cc2)n1 [Compound I-29] | 100 to 1000 nM | 100 to 1000 nM | – | – |
| Cc1nc(CF)sc1-c1csc(NC(=O)Cc2ccc(S(=O)(=O)C(F)(F)F)cc2)n1 [Compound I-31] | < 100 nM | < 100 nM | – | – |
| Cc1nc(C)c(-c2csc(NC(=O)C(C)C)n2)s1 [Compound I-32] | 100 to 1000 nM | < 100 nM | – | – |
| Cc1nc(C)c(-c2csc(NC(=O)C3CC(F)(F)C3)n2)s1 [Compound I-34] | 100 to 1000 nM | < 100 nM | – | – |
| Cc1nc(C)c(-c2csc(NC(=O)Cc3ccc(CS(=O)(=O)C(F)(F)F)cc3)n2)s1 [Compound I-35] | < 100 nM | < 100 nM | – | – |
| Cc1nc(C)c(-c2csc(NC(=O)Cc3ccc(S(=O)(=O)C(F)F)cc3)n2)s1 [Compound I-36] | < 100 nM | < 100 nM | – | – |
| Cc1nc(C)c(-c2csc(NC(=O)C3Cc4ccccc4C3)n2)s1 [Compound I-43] | < 100 nM | < 100 nM | – | – |
| Cc1nc(C)c(-c2csc(NC(=O)C3CCN(c4ccccc4)C3)n2)s1 (stereo not drawn) [Compound I-46] | < 100 nM | < 100 nM | – | – |
| Cc1nc(C)c(-c2csc(NC(=O)C3CC(=O)N(Cc4ccccc4)C3)n2)s1 (stereo not drawn) [Compound I-47] | 1000 to 8000 nM | 100 to 1000 nM | – | – |
| Cc1nc(C)c(-c2csc(NC(=O)Cc3ccc(F)c(Cl)c3)n2)s1 [Compound I-49] | < 100 nM | < 100 nM | – | – |
| Cc1nc(C)c(-c2csc(NC(=O)Cn3cc(Cl)cn3)n2)s1 [Compound I-50] | 100 to 1000 nM | < 100 nM | – | – |
| Cc1nc(C)c(-c2csc(NC(=O)CC3CC(F)(F)C3(F)F)n2)s1 (stereo not drawn) [Compound I-53] | 100 to 1000 nM | 100 to 1000 nM | – | – |
| Cc1nc(C)c(-c2csc(NC(=O)N(C)c3ccc(Br)cc3)n2)s1 [Compound I-59] | 100 to 1000 nM | 100 to 1000 nM | – | – |
| Cc1nc(C)c(-c2csc(NC(=O)Cc3ccc(S(=O)(=O)C(F)(F)F)cc3)n2)s1 [Compound I-186] | < 100 nM | < 100 nM | – | – |
| N=C(N)Nc1ncc(-c2csc(NC(=O)c3ccccc3)n2)s1 [Compound I-187] | – | – | 1000 to 8000 nM | – |
| Cc1nc(C)c(-c2csc(NC(=O)C3CCCCC3)n2)s1 [Compound I-223] | 100 to 1000 nM | 100 to 1000 nM | – | – |
| Cc1nc(C)c(-c2csc(NC(=O)C3CCCC3)n2)s1 [Compound I-224] | 100 to 1000 nM | < 100 nM | – | – |
| Cc1nc(C)c(-c2csc(NC(=O)Cc3ccc(Br)cc3)n2)s1 [Compound I-225] | < 100 nM | < 100 nM | – | – |
| Cc1nc(C)c(-c2csc(NC(=O)C3CCC3)n2)s1 [Compound I-226] | 100 to 1000 nM | < 100 nM | – | – |
